Results taken from ChEMBL document CHEMBL5226388, “Terpenoids from the Sponge Sarcotragus sp. Collected in the South China Sea” (J Nat Prod, 2023).

What was measured:
H69AR = experiment: Cytotoxicity against human NCI-H69AR cells assessed as reduction in cell growth by MTT assay; format: functional, cell-based
K562 = experiment: Cytotoxicity against human K562 cells assessed as reduction in cell growth by MTT assay; format: functional, cell-based
[1] = Cytotoxicity against human L02 cells assessed as reduction in cell growth by MTT assay; format: toxicity, cell-based
MDA-MB-231 = experiment: Cytotoxicity against human MDA-MB-231 cells assessed as reduction in cell growth by MTT assay; format: functional, cell-based
ASPC1 = experiment: Cytotoxicity against human ASPC1 cells assessed as reduction in cell growth by MTT assay; format: functional, cell-based

## CC(=O)O[C@@H]1OC(=O)C=C1/C=C/[C@]1(C)C2=CC[C@H]3C(C)(C)CCC[C@]3(C)[C@H]2CC[C@@H]1C
H69AR
  IC50: 16.3 µM
K562
  IC50: 4.38 µM
[1]
  IC50: 7.21 µM
MDA-MB-231
  IC50: 23.2 µM

## CO[C@H](C[C@]1(C)C2=CC[C@H]3C(C)(C)CCC[C@]3(C)[C@H]2CC[C@@H]1C)C1=CC(=O)O[C@H]1O
ASPC1
  IC50: 4.71 µM
H69AR
  IC50: 5.67 µM
K562
  IC50: 7.95 µM
[1]
  IC50: 4.62 µM
MDA-MB-231
  IC50: 16 µM

## C[C@H]1CC[C@H]2C(=CC[C@H]3C(C)(C)CCC[C@]23C)[C@@]1(C)/C=C/C1=CC(=O)OC1O (stereo partly drawn)
ASPC1
  IC50: 22.4 µM
H69AR
  IC50: 25.7 µM
K562
  IC50: 11.6 µM
[1]
  IC50: 13.5 µM
MDA-MB-231
  IC50: > 30 µM

## C[C@@H]1CC[C@@H]2C(=CC[C@@H]3C(C)(C)CCC[C@@]23C)[C@]1(C)C[C@H](O)C1=CC(=O)OC1
ASPC1
  IC50: > 30 µM
H69AR
  IC50: > 30 µM
K562
  IC50: > 30 µM
[1]
  IC50: > 30 µM
MDA-MB-231
  IC50: > 30 µM

## C=C(C)CCCC1=CCC[C@H](C)[C@]1(C)CCC1=CC(=O)OC1O (stereo partly drawn)
ASPC1
  IC50: > 30 µM
H69AR
  IC50: 21.1 µM
K562
  IC50: 15.1 µM
[1]
  IC50: 13.5 µM
MDA-MB-231
  IC50: > 30 µM

## CC(=O)O[C@H]1OC(=O)C=C1/C=C/[C@]1(C)C2=CC[C@H]3C(C)(C)CCC[C@]3(C)[C@H]2CC[C@@H]1C
H69AR
  IC50: 14.9 µM
K562
  IC50: 2.91 µM
[1]
  IC50: 6.8 µM
MDA-MB-231
  IC50: 29 µM

## CC(C)=CCC[C@@]1(C)CCC=C2[C@@H]1CC[C@H](C)[C@]2(C)CCC1=CC(=O)OC1
ASPC1
  IC50: > 30 µM
H69AR
  IC50: > 30 µM
K562
  IC50: > 30 µM
[1]
  IC50: > 30 µM
MDA-MB-231
  IC50: > 30 µM

## CC1=CCC[C@@H](C)[C@@]1(C)CC/C(C)=C/CCC1=CC(=O)OC1
ASPC1
  IC50: > 30 µM
H69AR
  IC50: > 30 µM
K562
  IC50: > 30 µM
[1]
  IC50: > 30 µM
MDA-MB-231
  IC50: > 30 µM

## CC(=O)O[C@@H]1C[C@@H]2[C@@]3(C)CCCC(C)(C)[C@@H]3CC[C@@]2(C)[C@@H]2C[C@@H](O)C3=C([C@H](O)OC3=O)[C@@]12C
ASPC1
  IC50: 17.9 µM
H69AR
  IC50: 27.5 µM
K562
  IC50: 7.19 µM
[1]
  IC50: 24.1 µM
MDA-MB-231
  IC50: > 30 µM

## C[C@@H]1CC[C@@H]2C(=CC[C@H]3C(C)(C)CCC[C@@]23C)[C@]1(C)C[C@@H](O)C1=CC(=O)OC1
ASPC1
  IC50: > 30 µM
H69AR
  IC50: > 30 µM
K562
  IC50: 12.6 µM
[1]
  IC50: 11.6 µM
MDA-MB-231
  IC50: > 30 µM

## COc1cccc2c1C(=O)c1c(O)c3c(c(O)c1C2=O)C[C@@](O)(C(=O)CO)C[C@@H]3O[C@H]1C[C@H](N)[C@H](O)[C@H](C)O1 [DOXORUBICIN]
ASPC1
  IC50: < 1 µM
H69AR
  IC50: < 1 µM
K562
  IC50: < 1 µM
[1]
  IC50: < 1 µM
MDA-MB-231
  IC50: < 1 µM
